In the supplement of paper PMC13207355:
Where a name gives a salt, the structure may show the parent alone.

Key:
Conditions in all cases: exposure time: 72 h
[1] = system: E21 (patient-derived glioblastoma stem cells of mesenchymal subtype); test: surviving fraction (nuclei count normalised to DMSO); higher = more cells surviving (less toxic)
[2] = system: E57 (patient-derived glioblastoma stem cells of mesenchymal subtype); test: as above
[3] = system: FT3469 (normal neural stem cell line); test: as above
[4] = system: E31 (patient-derived glioblastoma stem cells of proneural subtype); test: as above
[5] = system: E28 (patient-derived glioblastoma stem cells of classical subtype); test: as above
[6] = system: E13 (patient-derived glioblastoma stem cells of classical subtype); test: as above
[7] = system: E34 (patient-derived glioblastoma stem cells of proneural subtype); test: as above
[8] = system: E21; test: phenotypic distance (Euclidean, principal components) from DMSO controls (arbitrary units); higher = stronger morphological change
[9] = system: E57; test: as above
[10] = system: FT3469; test: as above
[11] = system: E31; test: as above
[12] = system: E28; test: as above
[13] = system: E13; test: as above
[14] = system: E34; test: as above
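Wherever phenotypic distance (Euclidean, principal components) from DMSO controls is given: cell Painting imaging in 384-well plates, CellProfiler features reduced to at least 20 principal components, Euclidean distance versus same-plate DMSO vehicle wells (0.1% v/v), median over six images per well.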
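Wherever surviving fraction (nuclei count normalised to DMSO) is given: nuclei counted by high-content imaging of Hoechst-stained cells in laminin-coated 384-well plates, relative to 0.1% DMSO vehicle wells, with staurosporine as cell-death control.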

COc1cc2nc(N3CCN(C(=O)c4ccco4)CC3)nc(N)c2cc1OC [Prazosin hydrochloride]
Conditions	phenotypic distance	surviving fraction
[1], 4.11523 nM	–	1.03
[1], 12.34567901 nM	–	1.03
[1], 37.037 nM	–	1
[1], 111.1111111 nM	–	1.04
[1], 333.333 nM	–	1.11
[1], 1000 nM	–	0.938
[1], 3000 nM	–	0.912
[2], 4.11523 nM	–	1.07
[2], 12.34567901 nM	–	1.02
[2], 37.037 nM	–	1.09
[2], 111.1111111 nM	–	0.961
[2], 333.333 nM	–	1
[2], 1000 nM	–	0.915
[2], 3000 nM	–	0.97
[3], 4.11523 nM	–	1
[3], 12.34567901 nM	–	1.14
[3], 37.037 nM	–	1.03
[3], 111.1111111 nM	–	1.05
[3], 333.333 nM	–	1.14
[3], 1000 nM	–	1.12
[3], 3000 nM	–	1.06
[4], 4.11523 nM	–	0.988
[4], 12.34567901 nM	–	1.19
[4], 37.037 nM	–	1.13
[4], 111.1111111 nM	–	1.03
[4], 333.333 nM	–	1.04
[4], 1000 nM	–	1.07
[4], 3000 nM	–	1
[5], 4.11523 nM	–	1.07
[5], 12.34567901 nM	–	0.881
[5], 37.037 nM	–	1.17
[5], 111.1111111 nM	–	0.956
[5], 333.333 nM	–	1.2
[5], 1000 nM	–	0.907
[5], 3000 nM	–	0.976
[6], 4.11523 nM	–	1.11
[6], 12.34567901 nM	–	0.996
[6], 37.037 nM	–	1.07
[6], 111.1111111 nM	–	0.955
[6], 333.333 nM	–	1.04
[6], 1000 nM	–	1.03
[6], 3000 nM	–	0.815
[7], 4.11523 nM	–	1.04
[7], 12.34567901 nM	–	0.994
[7], 37.037 nM	–	1.14
[7], 111.1111111 nM	–	0.986
[7], 333.333 nM	–	1.11
[7], 1000 nM	–	0.837
[7], 3000 nM	–	1.04
[8], 4.11523 nM	0.712	–
[8], 12.34567901 nM	0.547	–
[8], 37.037 nM	0.834	–
[8], 111.1111111 nM	0.524	–
[8], 333.333 nM	0.736	–
[8], 1000 nM	0.384	–
[8], 3000 nM	0.699	–
[9], 4.11523 nM	0.592	–
[9], 12.34567901 nM	0.576	–
[9], 37.037 nM	0.642	–
[9], 111.1111111 nM	0.745	–
[9], 333.333 nM	0.475	–
[9], 1000 nM	0.697	–
[9], 3000 nM	0.95	–
[10], 4.11523 nM	0.634	–
[10], 12.34567901 nM	0.798	–
[10], 37.037 nM	0.909	–
[10], 111.1111111 nM	0.541	–
[10], 333.333 nM	0.436	–
[10], 1000 nM	0.748	–
[10], 3000 nM	0.762	–
[11], 4.11523 nM	0.642	–
[11], 12.34567901 nM	0.488	–
[11], 37.037 nM	0.739	–
[11], 111.1111111 nM	0.653	–
[11], 333.333 nM	0.984	–
[11], 1000 nM	0.431	–
[11], 3000 nM	0.892	–
[12], 4.11523 nM	0.643	–
[12], 12.34567901 nM	0.664	–
[12], 37.037 nM	1.1	–
[12], 111.1111111 nM	0.589	–
[12], 333.333 nM	0.766	–
[12], 1000 nM	1.03	–
[12], 3000 nM	0.426	–
[13], 4.11523 nM	0.601	–
[13], 12.34567901 nM	3.49	–
[13], 37.037 nM	2.1	–
[13], 111.1111111 nM	0.55	–
[13], 333.333 nM	0.666	–
[13], 1000 nM	0.512	–
[13], 3000 nM	2.04	–
[14], 4.11523 nM	0.522	–
[14], 12.34567901 nM	0.593	–
[14], 37.037 nM	0.611	–
[14], 111.1111111 nM	0.647	–
[14], 333.333 nM	0.638	–
[14], 1000 nM	0.628	–
[14], 3000 nM	0.776	–

Cc1cc(CN2CCN(c3c(Br)cnc4nc(-c5ccc(N6CCN(C)CC6)cc5)[nH]c34)CC2)no1
Conditions	phenotypic distance	surviving fraction
[1], 4.1 nM	–	0.936
[1], 12.3 nM	–	0.864
[1], 37 nM	–	0.9
[1], 111.1 nM	–	0.917
[1], 333.3 nM	–	0.6
[1], 1000 nM	–	0.387
[1], 3000 nM	–	0.0348
[2], 4.1 nM	–	0.974
[2], 12.3 nM	–	0.888
[2], 37 nM	–	0.906
[2], 111.1 nM	–	0.871
[2], 333.3 nM	–	0.651
[2], 1000 nM	–	0.325
[2], 3000 nM	–	0.0382
[3], 4.1 nM	–	0.662
[3], 12.3 nM	–	0.758
[3], 37 nM	–	0.843
[3], 111.1 nM	–	0.737
[3], 333.3 nM	–	0.705
[3], 1000 nM	–	0.676
[3], 3000 nM	–	0.37
[4], 4.1 nM	–	1.02
[4], 12.3 nM	–	0.782
[4], 37 nM	–	0.994
[4], 111.1 nM	–	0.867
[4], 333.3 nM	–	0.511
[4], 1000 nM	–	0.334
[4], 3000 nM	–	0.00629
[5], 4.1 nM	–	1.15
[5], 12.3 nM	–	0.888
[5], 37 nM	–	1.09
[5], 111.1 nM	–	0.916
[5], 333.3 nM	–	0.806
[5], 1000 nM	–	0.392
[5], 3000 nM	–	0.163
[6], 4.1 nM	–	0.995
[6], 12.3 nM	–	0.966
[6], 37 nM	–	0.963
[6], 111.1 nM	–	0.91
[6], 333.3 nM	–	0.676
[6], 1000 nM	–	0.528
[6], 3000 nM	–	0.0986
[7], 4.1 nM	–	0.839
[7], 12.3 nM	–	0.842
[7], 37 nM	–	1.09
[7], 111.1 nM	–	0.872
[7], 333.3 nM	–	0.827
[7], 1000 nM	–	0.618
[7], 3000 nM	–	0.26
[8], 4.1 nM	1.03	–
[8], 12.3 nM	0.842	–
[8], 37 nM	0.688	–
[8], 111.1 nM	0.989	–
[8], 333.3 nM	2.77	–
[8], 1000 nM	5.77	–
[8], 3000 nM	7.03	–
[9], 4.1 nM	0.499	–
[9], 12.3 nM	0.684	–
[9], 37 nM	0.82	–
[9], 111.1 nM	1.16	–
[9], 333.3 nM	5.64	–
[9], 1000 nM	8.26	–
[9], 3000 nM	9.56	–
[10], 4.1 nM	1.38	–
[10], 12.3 nM	0.929	–
[10], 37 nM	1.76	–
[10], 111.1 nM	1.44	–
[10], 333.3 nM	1.88	–
[10], 1000 nM	2.37	–
[10], 3000 nM	9.55	–
[11], 4.1 nM	0.99	–
[11], 12.3 nM	1.9	–
[11], 37 nM	1.97	–
[11], 111.1 nM	0.784	–
[11], 333.3 nM	1.62	–
[11], 1000 nM	3.36	–
[11], 3000 nM	10.2	–
[12], 4.1 nM	1.13	–
[12], 12.3 nM	1.52	–
[12], 37 nM	1.01	–
[12], 111.1 nM	1.29	–
[12], 333.3 nM	1.23	–
[12], 1000 nM	2.97	–
[12], 3000 nM	5.6	–
[13], 4.1 nM	0.33	–
[13], 12.3 nM	0.336	–
[13], 37 nM	0.51	–
[13], 111.1 nM	0.456	–
[13], 333.3 nM	1.86	–
[13], 1000 nM	4.59	–
[13], 3000 nM	13.4	–
[14], 4.1 nM	1.02	–
[14], 12.3 nM	1.13	–
[14], 37 nM	0.858	–
[14], 111.1 nM	0.728	–
[14], 333.3 nM	2.67	–
[14], 1000 nM	2.84	–
[14], 3000 nM	8.59	–
